# Target: T1, human CGRP receptor (Homo sapiens, UniProt O60894+Q16602)
# T1 construct: SK-N-MC endogenously expressing the human CGRP receptor; endogenous in cells; host or cells: SK-N-MC human neuroblastoma cells
# Experiment: cAMP functional assay (HTRF cAMP dynamic-2) in SK-N-MC cells
# Assay type: cell-based
# Conditions: SK-N-MC cells endogenously expressing human CGRP receptor; challenge with EC80 human CGRP (0.3 nM); functional pKb converted from pIC50 by modified Cheng-Prussoff equation
# Experimental: Biological Activity cAMP Functional Assay
# cAMP production following receptor activation was determined using the Homogeneous Time-Resolved Fluorescence (HTRF) cAMP dynamic-2 assay (Cisbio, France). The human neuroblastoma cell line SK-N-MC endogenously expressing the human CGRP receptor was seeded at a density of 12,500 cells/well in solid walled 96 well half area plates (Costar, Catalog Number 3688, Corning Life Sciences, Germany). After 16 h incubation at 37° C. media was removed and cells were incubated at 37° C. for 30 min in serum free media containing 500 μM IBMX (Tocris, Abingdon, UK, Catalog Number 2845) and increasing concentrations of test antagonist. Following this cells were challenged with an EC80 concentration of human CGRP (0.3 nM) for a further 30 min at 37° C. and then cAMP production was determined as manufacturer's instructions before plates were read on a PheraStar fluorescence plate reader (BMG LabTech, Germany). IC50 values were derived from the inhibition curve. The pIC50 values (where pIC50=−log 10 IC50) were converted to a functional pKb value using a modified Cheng-Prussoff equation where Kd=agonist EC50 and L hot=agonist challenge concentration. The pKb values of certain compounds of the invention are detailed in Table 4.
# T1 sequence (Q16602 23-461): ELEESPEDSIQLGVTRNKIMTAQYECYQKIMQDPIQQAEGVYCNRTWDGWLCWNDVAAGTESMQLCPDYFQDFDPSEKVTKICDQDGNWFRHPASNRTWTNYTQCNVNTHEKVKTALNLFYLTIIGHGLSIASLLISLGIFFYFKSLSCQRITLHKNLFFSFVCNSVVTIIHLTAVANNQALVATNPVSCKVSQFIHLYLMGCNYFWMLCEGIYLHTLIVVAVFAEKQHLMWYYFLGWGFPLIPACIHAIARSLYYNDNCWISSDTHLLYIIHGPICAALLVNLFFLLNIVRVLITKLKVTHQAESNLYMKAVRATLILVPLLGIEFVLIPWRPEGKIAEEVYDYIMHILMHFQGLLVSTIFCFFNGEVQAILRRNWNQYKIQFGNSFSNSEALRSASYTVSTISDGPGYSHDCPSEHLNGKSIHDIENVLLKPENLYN
# T1 sequence (O60894 27-148): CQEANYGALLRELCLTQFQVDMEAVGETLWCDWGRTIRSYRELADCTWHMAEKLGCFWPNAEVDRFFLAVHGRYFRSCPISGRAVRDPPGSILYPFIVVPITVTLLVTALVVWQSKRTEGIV
row,SMILES,Kb
1,"Cc1cc(C[C@H]2NC(=O)c3cnc4c(c3)C[C@]3(C4)C(=O)Nc4ncc(cc43)/C=C/COCCOCCN(C)C2=O)cc2cn[nH]c12 [Example 1-2, (1R,10R,20E)-12-methyl-10-[(7-methyl-1H-indazol-5-yl)methyl]-15,18-dioxa-5,9,12,24,26-pentazapentacyclo[20.5.2.11,4.13,7.025,28]hentriaconta-3,5,7(30),20,22(29),23,25(28)-heptaene-8,11,27-trione]",200 nM
2,"Cc1cc(C[C@@H]2NC(=O)c3cnc4c(c3)C[C@@]3(C4)C(=O)Nc4ncc(cc43)/C=C/COCCOCCN(C)C2=O)cc2cn[nH]c12 [Example 1-3, (1S,10S,20E)-12-methyl-10-[(7-methyl-1H-indazol-5-yl)methyl]-15,18-dioxa-5,9,12,24,26-pentazapentacyclo[20.5.2.11,4.13,7.025,28]hentriaconta-3,5,7(30),20,22(29),23,25(28)-heptaene-8,11,27-trione]",10 nM
3,"Cc1cc(C[C@H]2NC(=O)c3cnc4c(c3)C[C@@]3(C4)C(=O)Nc4ncc(cc43)/C=C/COCCOCCOCCN(C)C2=O)cc2cn[nH]c12 [Example 1-4, (1S,10R,23E)-12-methyl-10-[(7-methyl-1H-indazol-5-yl)methyl]-15,18,21-trioxa-5,9,12,27,29-pentazapentacyclo[23.5.2.11,4.13,7.028,31]tetratriaconta-3,5,7(33),23,25(32),26,28(31)-heptaene-8,11,30-trione]",0.251 nM
4,"Cc1cc(C[C@H]2NC(=O)c3cnc4c(c3)C[C@@]3(C4)C(=O)Nc4ncc(cc43)/C=C/COCCCCN(C)C2=O)cc2cn[nH]c12 [Example 1-7, (1S,10R,19E)-12-methyl-10-[(7-methyl-1H-indazol-5-yl)methyl]-17-oxa-5,9,12,23,25-pentazapentacyclo[19.5.2.11,4.13,7.024,27]triaconta-3,5,7(29),19,21(28),22,24(27)-heptaene-8,11,26-trione]",0.0631 nM
5,"Cc1cc(C[C@H]2NC(=O)c3cnc4c(c3)C[C@@]3(C4)C(=O)Nc4ncc(cc43)CCCOCCOCCN(C)C2=O)cc2cn[nH]c12 [Example 1-8, (1S,10R)-12-methyl-10-[(7-methyl-1H-indazol-5-yl)methyl]-15,18-dioxa-5,9,12,24,26-pentazapentacyclo[20.5.2.11,4.13,7.025,28]hentriaconta-3,5,7(30),22(29),23,25(28)-hexaene-8,11,27-trione]",1.26 nM
6,"Cc1cc(C[C@H]2NC(=O)c3cc4c(cn3)C[C@]3(C4)C(=O)Nc4ncc(cc43)/C=C/COCCOCCN(C)C2=O)cc2cn[nH]c12 [Example 2-1, (1S,10R,20E)-12-methyl-10-[(7-methyl-1H-indazol-5-yl)methyl]-15,18-dioxa-6,9,12,24,26-pentazapentacyclo[20.5.2.11,4.13,7.025,28]hentriaconta-3,5,7(30),20,22(29),23,25(28)-heptaene-8,11,27-trione]",2.51 nM
7,"Cc1cc(C[C@H]2NC(=O)c3cc4c(cn3)C[C@@]3(C4)C(=O)Nc4ncc(cc43)/C=C/COCCOCCN(C)C2=O)cc2cn[nH]c12 [Example 2-2, (1R,10R,20E)-12-methyl-10-[(7-methyl-1H-indazol-5-yl)methyl]-15,18-dioxa-6,9,12,24,26-pentazapentacyclo[20.5.2.11,4.13,7.025,28]hentriaconta-3,5,7(30),20,22(29),23,25(28)-heptaene-8,11,27-trione]",0.794 nM
8,"Cc1cc(C[C@H]2NC(=O)c3cc4c(cn3)C[C@@]3(C4)C(=O)Nc4ncc(cc43)/C=C/CN(C)CCCCCN(C)C2=O)cc2cn[nH]c12 [Example 2-3, (1R,10R,20E)-12,18-dimethyl-10-[(7-methyl-1H-indazol-5-yl)methyl]-6,9,12,18,24,26-hexazapentacyclo[20.5.2.11,4.13,7.025,28]hentriaconta-3,5,7(30),20,22(29),23,25(28)-heptaene-8,11,27-trione]",1.26 nM
9,"Cc1cc(C[C@H]2NC(=O)c3cc4c(cn3)C[C@]3(C4)C(=O)Nc4ncc(cc43)/C=C/COCCOCCN(C)C2=O)cc2cnn(C)c12 [Example 2-4, (1S,10R,20E)-10-[(1,7-dimethylindazol-5-yl)methyl]-12-methyl-15,18-dioxa-6,9,12,24,26-pentazapentacyclo[20.5.2.11,4.13,7.025,28]hentriaconta-3,5,7(30),20,22(29),23,25(28)-heptaene-8,11,27-trione]",25.1 nM
10,"Cc1cc(C[C@H]2NC(=O)c3cc4c(cn3)C[C@@]3(C4)C(=O)Nc4ncc(cc43)/C=C/COCCOCCN(C)C2=O)cc2cnn(C)c12 [Example 2-5, (1R,10R,20E)-10-[(1,7-dimethylindazol-5-yl)methyl]-12-methyl-15,18-dioxa-6,9,12,24,26-pentazapentacyclo[20.5.2.11,4.13,7.025,28]hentriaconta-3,5,7(30),20,22(29),23,25(28)-heptaene-8,11,27-trione]",0.501 nM
11,"Cc1cc(C[C@H]2NC(=O)c3cc4c(cn3)C[C@@]3(C4)C(=O)Nc4ncc(cc43)/C=C/COCCCCCN(C)C2=O)cc2cnn(C)c12 [Example 2-6, (1R,10R,20E)-10-[(1,7-dimethylindazol-5-yl)methyl]-12-methyl-18-oxa-6,9,12,24,26-pentazapentacyclo[20.5.2.11,4.13,7.025,28]hentriaconta-3,5,7(30),20,22(29),23,25(28)-heptaene-8,11,27-trione]",0.794 nM
12,"Cc1cc(C[C@H]2NC(=O)c3cc4c(cn3)C[C@@]3(C4)C(=O)Nc4ncc(cc43)/C=C/COCCCCN(C)C2=O)cc2cnn(C)c12 [Example 2-7, (1R,10R,19E)-10-[(1,7-dimethylindazol-5-yl)methyl]-12-methyl-17-oxa-6,9,12,23,25-pentazapentacyclo[19.5.2.11,4.13,7.024,27]triaconta-3,5,7(29),19,21(28),22,24(27)-heptaene-8,11,26-trione]",1 nM
13,"Cc1cc(C[C@H]2NC(=O)c3cc4c(cn3)C[C@@]3(C4)C(=O)Nc4ncc(cc43)/C=C/CN(C)CCCCCN(C)C2=O)cc2cnn(C)c12 [Example 2-8, (1R,10R,20E)-10-[(1,7-dimethylindazol-5-yl)methyl]-12,18-dimethyl-6,9,12,18,24,26-hexazapentacyclo[20.5.2.11,4.13,7.025,28]hentriaconta-3,5,7(30),20,22(29),23,25(28)-heptaene-8,11,27-trione]",2 nM
14,"Cc1cc(C[C@H]2NC(=O)c3cc4c(cn3)C[C@@]3(C4)C(=O)Nc4ncc(cc43)/C=C/COCCN(C)CCN(C)C2=O)cc2cnn(C)c12 [Example 2-9, (1R,10R,20E)-10-[(1,7-dimethylindazol-5-yl)methyl]-12,15-dimethyl-18-oxa-6,9,12,15,24,26-hexazapentacyclo[20.5.2.11,4.13,7.025,28]hentriaconta-3,5,7(30),20,22(29),23,25(28)-heptaene-8,11,27-trione]",1.26 nM

# The next lines start with the values.
row,Kb,SMILES
1,1.26 nM,"CN1CCOCCOC/C=C/c2cnc3c(c2)[C@]2(Cc4ccc(cc4C2)C(=O)NC(Cc2cc(Cl)c4[nH]ncc4c2)C1=O)C(=O)N3 (mixture of isomers) [Example 3-9, (1R,20E)-10-[(7-chloro-1H-indazol-5-yl)methyl]-12-methyl-15,18-dioxa-9,12,24,26-tetrazapentacyclo[20.5.2.11,4.13,7.025,28]hentriaconta-3,5,7(30),20,22(29),23,25(28)-heptaene-8,11,27-trione]"
2,20 nM,"Cc1cc(C[C@H]2NC(=O)c3ccc4c(n3)CC3(C4)C(=O)Nc4ncc(cc43)/C=C/COCCOCCN(C)C2=O)cc2cn[nH]c12 (single isomer, unassigned) [Example 8-1]"
3,31.6 nM,"Cc1cc(C[C@H]2NC(=O)c3ccc4c(n3)CC3(C4)C(=O)Nc4ncc(cc43)/C=C/COCCOCCN(C)C2=O)cc2cn[nH]c12 (single isomer, unassigned) [Example 8-2]"
4,1.26 nM,"Cc1cc(C[C@H]2NC(=O)c3ccc4c(c3)C[C@@]3(C4)C(=O)Nc4ncc(cc43)/C=C/COCCOCCN(C)C2=O)cc2cn[nH]c12 [Example 3-1, (1R,10R,20E)-12-methyl-10-[(7-methyl-1H-indazol-5-yl)methyl]-15,18-dioxa-9,12,24,26-tetrazapentacyclo[20.5.2.11,4.13,7.025,28]hentriaconta-3,5,7(30),20,22(29),23,25(28)-heptaene-8,11,27-trione]"
5,0.631 nM,"Cc1cc(C[C@H]2NC(=O)c3ccc4c(c3)C[C@]3(C4)C(=O)Nc4ncc(cc43)/C=C/COCCOCCN(C)C2=O)cc2cn[nH]c12 [Example 3-2, (1S,10R,20E)-12-methyl-10-[(7-methyl-1H-indazol-5-yl)methyl]-15,18-dioxa-9,12,24,26-tetrazapentacyclo[20.5.2.11,4.13,7.025,28]hentriaconta-3,5,7(30),20,22(29),23,25(28)-heptaene-8,11,27-trione]"
6,0.794 nM,"Cc1cc(C[C@H]2NC(=O)c3ccc4c(c3)C[C@]3(C4)C(=O)Nc4ncc(cc43)/C=C/COCCCN(C)C2=O)cc2cn[nH]c12 [Example 3-3, (1S,10R,18E)-12-methyl-10-[(7-methyl-1H-indazol-5-yl)methyl]-16-oxa-9,12,22,24-tetrazapentacyclo[18.5.2.11,4.13,7.023,26]nonacosa-3,5,7(28),18,20(27),21,23(26)-heptaene-8,11,25-trione]"

# Source: patent US12344621B2, “CGRP antagonist compounds” (Nxera Pharma UK Limited, priority 2019, dated 2025)
